The experiment concerns the target T1, Sirt6 (Homo sapiens, UniProt Q8N6T7).
T1 construct: purchased CycLex CY-1156V2
Description: Measurement of Sirt6 Activity (CycLex Sirt6 Deacetylase Fluorometric Assay Kit). It counts as biochemical. Conditions: compound at 10 μM; fluorescence relative to the group without compound treatment (positive control group). The procedure: LC-MS (ESI, m/z)=430.1 (M+H^+) Experimental Example 1: Measurement of Sirt6 Activity Compounds having Sirt6 activity were selected using a CycLex Sirt6 Deacetylase Fluorometric Assay Kit (cat. CY-1156V2) manufactured by CycLex.
When a fluorescent-attached acetylated lysine substrate is treated with Sirt6 enzyme, Sirt6 deacetylates the acetylated lysine of the substrate and lysylendopeptidase cleaves the C-terminal peptide bond connected to the lysine, by which fluorescence is emitted. The activity of a compound is calculated by observing the intensity of fluorescence when the compound is treated along with Sirt6 enzyme. When treating the compound, the compound aids in the activity of Sirt6 enzyme, so as to result in stronger fluorescence. Therefore, by calculating the ratio of the stronger fluorescence relative to the fluorescence emitted from the group without compound treatment (i.e., positive control group), relative activity can be calculated.
Activity evaluation was performed according to the following procedure.
The compound whose activity is to be evaluated was prepared by diluting in phosphate-buffered saline (PBS) to 10 times of the desired concentration (e.g., when measuring Sirt6 assay activity at 10 μM, the compound is prepared at a concentration of 100 μM in PBS). 1 μL of a 1 Ox Sirt6 assay buffer, 0.8 μL of 50× fluoro-substrate peptide, 1 μL of nicotinamide adenine dinucleotide (NAD), 1 μL of a developer and 4.2 μL of H2O were mixed to prepare mixtures equal to the number of samples, and 8 μL was dispensed into each Black 384 well. An additional 1 μL of PBS was added to each of a “no enzyme group” and a positive control group, and 1 μL of the compound diluted in PBS was added to an activity evaluation group. Recombinant Sirt6 was 1:8 diluted in a 1×Sirt6 assay buffer, and 1 μL thereof was added to each of the positive control group and the activity evaluation group. 1 μL of the 1×Sirt6 assay buffer was added to the “no enzyme group.” After reacting at room temperature for one hour, results were measured with a fluorescence spectrometer (excitation: 490±10 nm, emission: 530±10 nm) to confirm the presence or absence of Sirt6 activity and measure the intensity of the activity.

The structures appear in SMILES notation.

T1 sequence (Q8N6T7 whole entry): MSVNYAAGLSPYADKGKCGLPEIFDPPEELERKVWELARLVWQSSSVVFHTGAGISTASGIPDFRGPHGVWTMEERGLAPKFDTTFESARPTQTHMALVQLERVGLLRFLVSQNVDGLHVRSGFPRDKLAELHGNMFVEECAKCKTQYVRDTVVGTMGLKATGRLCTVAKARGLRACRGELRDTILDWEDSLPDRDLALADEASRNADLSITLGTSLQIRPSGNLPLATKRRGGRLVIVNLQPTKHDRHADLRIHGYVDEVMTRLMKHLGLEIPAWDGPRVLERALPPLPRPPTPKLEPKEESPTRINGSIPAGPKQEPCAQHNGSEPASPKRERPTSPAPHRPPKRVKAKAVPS

For the compound `CC(C)(C)/[N+]([O-])=C/c1cccc(-c2nn(-c3ccc(F)cc3F)c(=O)c3ccccc23)c1` [Example 23, (Z)—N-tert-Butyl-1-(3-(3-(2,4-difluorophenyl)-4-oxo-3,4-dihydrophthalazin-1-yl)phenyl)methanimine Oxide], the “Sirt6 Activity (% activity, 10 μM)” value came out at 192 % activity.

Consider `CC(C)(C(=O)O)c1cccc(-c2nn(-c3ccc(F)cc3)c(=O)c3ccccc23)c1` [Example 152, 2-(3-(3-(4-Fluorophenyl)-4-oxo-3,4-dihydrophthalazin-1-yl)phenyl)-2-methylpropanoic Acid], for which the “Sirt6 Activity (% activity, 10 μM)” value is on record as 195.5 % activity.

As to `CCS(=O)(=O)N[C@H]1CCCN(c2nn(-c3ccc(F)cc3)c(=O)c3ccccc23)C1` [Example 138, (S)—N-(1-(3-(4-Fluorophenyl)-4-oxo-3,4-dihydrophthalazin-1-yl)piperidin-3-yl)ethanesulfonamide], the “Sirt6 Activity (% activity, 10 μM)” value worked out at 175.98 % activity.

Take `Cl.NC1CCCCN(c2nn(-c3ccc(F)cc3F)c(=O)c3ccccc23)C1` (centres unmarked) [Example 167, 4-(3-Aminoazepan-1-yl)-2-(2,4-difluorophenyl)phthalazin-1(2H)-one-hydrochloride]: the “Sirt6 Activity (% activity, 10 μM)” value is given as 249.4 % activity.

For `CS(=O)(=O)c1cccc(-c2nn(-c3ccccc3)c(=O)c3cc(F)ccc23)c1` [Example 112, 7-Fluoro-4-(3-(methylsulfonyl)phenyl)-2-phenylphthalazin-1(2H)-one], the “Sirt6 Activity (% activity, 10 μM)” value is 103 % activity.

Turning to `CCS(=O)(=O)Nc1cccc(-c2nn(C3CCC(F)(F)CC3)c(=O)c3ccccc23)c1` [Example 140, N-(3-(3-(4,4-Difluorocyclohexyl)-4-oxo-3,4-dihydrophthalazin-1-yl)phenyl)ethanesulfonamide], the “Sirt6 Activity (% activity, 10 μM)” value is given as 134.41 % activity.

For the compound `CCS(=O)(=O)Nc1cccc(-c2nn(-c3ccc(-c4ccccc4)cc3)c(=O)c3ccccc23)c1` [Example 64, N-(3-(3-([1,1′-Biphenyl]-4-yl)-4-oxo-3,4-dihydrophthalazin-1-yl)phenyl)ethane Sulfonamide], the “Sirt6 Activity (% activity, 10 μM)” value is 106 % activity.

Regarding `Nc1cccc(-c2nn(-c3ccc(C(F)(F)F)cc3)c(=O)c3ccccc23)c1` [Example 2, 4-(3-Aminophenyl)-2-(4-(trifluoromethyl)phenyl)phthalazin-1(2H)-one], the “Sirt6 Activity (% activity, 10 μM)” value is recorded as 88 % activity.

Consider `CCS(=O)(=O)Nc1cccc(-c2nn(C3CCC(C)CC3)c(=O)c3ccccc23)c1` (centres unmarked) [Example 145, N-(3-(3-(4-Methylcyclohexyl)-4-oxo-3,4-dihydrophthalazin-1-yl)phenyl)ethanesulfonamide], for which the “Sirt6 Activity (% activity, 10 μM)” value is 136.6 % activity.

Take `CCS(=O)(=O)NC1CCCN(c2nn(-c3ccc(F)cc3)c(=O)c3ccccc23)C1` (centres unmarked) [Example 135, N-(1-(3-(4-Fluorophenyl)-4-oxo-3,4-dihydrophthalazin-1-yl)piperidin-3-yl)ethanesulfonamide]: the “Sirt6 Activity (% activity, 10 μM)” value is listed as 174.93 % activity.

On to `CCS(=O)(=O)c1cccc(-c2nn(-c3ccc(F)cc3F)c(=O)c3ccccc23)c1` [Example 90, 2-(2,4-Difluorophenyl)-4-(3-(ethylsulfonyl)phenyl)phthalazin-1(2H)-one], for which the “Sirt6 Activity (% activity, 10 μM)” value was determined as 283 % activity.

Take `CCS(=O)(=O)Nc1cccc(-c2nn(C(C)C)c(=O)c3ccccc23)c1` [Example 132, N-(3-(3-Isopropyl-4-oxo-3,4-dihydrophthalazin-1-yl)phenyl)ethanesulfonamide]: the “Sirt6 Activity (% activity, 10 μM)” value turned out to be 107.58 % activity.

For the compound `Cl.NC1CCCCN(c2nn(C3CCCC3)c(=O)c3ccccc23)C1` (centres unmarked) [Example 173, 4-(3-Aminoazepan-1-yl)-2-cyclopentyl phthalazin-1(2H)-one-hydrochloride], the “Sirt6 Activity (% activity, 10 μM)” value was determined as 112.2 % activity.

Consider `CCS(=O)(=O)Nc1cccc(-c2nn(C3COC3)c(=O)c3ccccc23)c1` [Example 136, N-(3-(3-(Oxetan-3-yl)-4-oxo-3,4-dihydrophthalazin-1-yl)phenyl)ethanesulfonamide], for which the “Sirt6 Activity (% activity, 10 μM)” value is 101.27 % activity.

Consider `COC(=O)NS(=O)(=O)Nc1cccc(-c2nn(-c3ccc(F)cc3F)c(=O)c3ccccc23)c1` [Example 26, Methyl (N-(3-(3-(2,4-difluorophenyl)-4-oxo-3,4-dinydrophthalazin-1-yl)phenyl)sulfamoyl)carbamate], for which the “Sirt6 Activity (% activity, 10 μM)” value was found to be 180 % activity.

As for `O=c1c2ccccc2c(-c2ccc[n+]([O-])c2)nn1-c1ccc(F)cc1` [Example 114, 3-(3-(4-Fluorophenyl)-4-oxo-3,4-dihydrophthalazin-1-yl)pyridine 1-oxide], the “Sirt6 Activity (% activity, 10 μM)” value is 226 % activity.

On to `CC(C)/[N+]([O-])=C/c1cccc(-c2nn(-c3ccc(-c4ccccc4)cc3)c(=O)c3ccccc23)c1` [Example 85, (Z)-1-(3-(3-([1,1′-Biphenyl]-4-yl)-4-oxo-3,4-dihydrophthalazin-1-yl)phenyl)-N-isopropylmethanimine Oxide], for which the “Sirt6 Activity (% activity, 10 μM)” value was determined as 118 % activity.

For `CC(C)(C(N)=O)c1cccc(-c2nn(-c3ccc(F)cc3F)c(=O)c3ccccc23)c1` [Example 188, 2-(3-(3-(2,4-Difluorophenyl)-4-oxo-3,4-dihydrophthalazin-1-yl)phenyl)-2-methylpropanamide], the “Sirt6 Activity (% activity, 10 μM)” value was 358.40 % activity.

Regarding `CN(C)S(=O)(=O)c1cccc(-c2nn(-c3ccc(F)cc3F)c(=O)c3ccc(F)cc23)c1` [Example 125, 3-(3-(2,4-Difluorophenyl)-7-fluoro-4-oxo-3,4-dihydrophthalazin-1-yl)-N,N-dimethylbenzenesulfonamide], the “Sirt6 Activity (% activity, 10 μM)” value is 172 % activity.

Take `CCS(=O)(=O)Nc1ccc(-c2nn(-c3ccccc3)c(=O)c3ccccc23)cc1` [Example 8, N-(4-(4-Oxo-3-phenyl-3,4-dihydrophthalazin-1-yl)phenyl)ethanesulfonamide]: the “Sirt6 Activity (% activity, 10 μM)” value is 100 % activity.

`Cl.N[C@@H]1CCCCN(c2nn(-c3ccc(F)cc3F)c(=O)c3ccccc23)C1` [Example 165, (R)-4-(3-Aminoazepan-1-yl)-2-(2,4-difluorophenyl)phthalazin-1(2H)-one-hydrochloride]: the “Sirt6 Activity (% activity, 10 μM)” value came to 277.1 % activity.

`CN(c1cccc(-c2nn(-c3ccccc3)c(=O)c3ccccc23)c1)S(C)(=O)=O` [Example 7, N-Methyl-N-(3-(4-oxo-3-phenyl-3,4-dihydro-phthalazin-1-yl)phenyl)methanesulfonamide]: the “Sirt6 Activity (% activity, 10 μM)” value was found to be 173 % activity.

For the compound `CC(C)/[N+]([O-])=C/c1cccc(-c2nn(-c3cccc(F)c3)c(=O)c3ccccc23)c1` [Example 28, (Z)-1-(3-(3-(3-Fluorophenyl)-4-oxo-3,4-dihydrophthalazin-1-yl)phenyl)-N-isopropylmethanimine Oxide], the “Sirt6 Activity (% activity, 10 μM)” value is 154 % activity.

Turning to `CS(=O)(=O)c1cccc(-c2nn(-c3ccccc3)c(=O)c3ccc(F)cc23)c1` [Example 110, 6-Fluoro-4-(3-(methylsulfonyl)phenyl)-2-phenylphthalazin-1(2H)-one], the “Sirt6 Activity (% activity, 10 μM)” value is given as 129 % activity.

Consider `CCNS(=O)(=O)c1cccc(-c2nn(-c3c(F)cccc3F)c(=O)c3ccccc23)c1` [Example 108, 3-(3-(2,6-Difluorophenyl)-4-oxo-3,4-dihydrophthalazin-1-yl)-N-ethylbenzenesulfonamide], for which the “Sirt6 Activity (% activity, 10 μM)” value is given as 209 % activity.

For the compound `C/[N+]([O-])=C/c1cccc(-c2nn(-c3c(F)cccc3F)c(=O)c3ccccc23)c1` [Example 102, (Z)-1-(3-(3-(2,6-Difluorophenyl)-4-oxo-3,4-dihydrophthalazin-1-yl)phenyl)-N-methylmethanimine Oxide], the “Sirt6 Activity (% activity, 10 μM)” value amounted to 206 % activity.

As for `CN(c1cccc(-c2nn(-c3ccc(F)cc3)c(=O)c3ccccc23)c1)S(=O)(=O)C1CC1` [Example 74, N-(3-(3-(4-Fluorophenyl)-4-oxo-3,4-dihydrophthalazin-1-yl)phenyl)-N-methylcyclopropane Sulfonamide], the “Sirt6 Activity (% activity, 10 μM)” value worked out at 128 % activity.

Take `N/C(=N/O)c1cccc(-c2nn(-c3ccc(F)cc3)c(=O)c3ccccc23)c1` [Example 131, (E)-3-(3-(4-Fluorophenyl)-4-oxo-3,4-dihydrophthalazin-1-yl)-N′-hydroxybenzimidamide]: the “Sirt6 Activity (% activity, 10 μM)” value came out at 102.08 % activity.

Take `CN(C)S(=O)(=O)N(C)c1cccc(-c2nn(-c3ccc(F)cc3)c(=O)c3ccccc23)c1` [Example 75, N-(3-(3-(4-Fluorophenyl)-4-oxo-3,4-dihydrophthalazin-1-yl)phenyl)-N-methyl-dimethyl Sulfamoylamide]: the “Sirt6 Activity (% activity, 10 μM)” value was 139 % activity.
